Consider 16 compounds from patent publication US11702422B2, “Imidazopyridazines as modulators of IL-17” (Janssen Pharmaceutica NV, priority 2020, dated 2023).

UniProt Q16552, sequence (Q16552 with tags, fused parts or gaps K93Q): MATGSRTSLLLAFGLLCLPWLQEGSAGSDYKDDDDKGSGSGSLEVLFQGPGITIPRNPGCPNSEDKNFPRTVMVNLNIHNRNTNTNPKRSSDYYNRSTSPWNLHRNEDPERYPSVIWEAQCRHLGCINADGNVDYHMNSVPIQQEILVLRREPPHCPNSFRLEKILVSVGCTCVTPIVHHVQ

The first assay addresses IL-17A(FLAG-Tagged): IL-17RA(His-Tagged) (Homo sapiens, UniProt Q16552, K93Q). As to the kind of experiment: IL-17A(FLAG-Tagged): IL-17RA(His-Tagged) Binding Disruption Eu-HTRF Assay. The following applies: IL-17A/IL-17RA binding disruption, simple average if tested more than once. An excerpt: IL-17A(FLAG-Tagged): IL-17RA(His-Tagged) Binding Disruption Eu-HTRF Assay
An antibody directed against the FLAG tag of IL-17A (SEQ ID NO:1) is labeled with the HTRF donor chromophore (Europium-cryptate). IL-17A is present as a dimer that is “locked into” this quaternary structure due to the formation of loop-spanning […] disulfide bridges. The construct of IL-17RA used in the assay excludes the […] portion of the receptor and is fused to a C-terminal 10×His tag (SEQ ID NO:2). An antibody directed against the His tag of the IL-17RA chimera is labeled with the HTRF acceptor chromophore (“D2”). The fluorescence-resonance energy transfer (FRET) depends on the vicinity of the donor chromophore to the acceptor, and interruption of the binding between the IL-17A and IL-17RA causes the reduction/loss of FRET. Therefore, this assay allows to evaluate the compound effect on the binding IL-17A and IL-17RA by monitoring the fluorescence intensity of donor vs acceptor. The assay is run as described below.
40 nl of 2-fold serial diluted compound solution for total 22 dilution points is added into each well of a 1536-well, white, low-volume, non-binding plate (Greiner #782904), then 2 μl of FLAG tagged IL-17A at 2× final concentration (2.5 nM) in solution of PBS+0.01% Triton-X100 is added to each well. The assay plate is briefly centrifuged then incubated for 1 h at rt. A mixed solution is prepared containing 2×5 nM 10HIS×IL-17RA, 2×2.5 nM Eu-anti-FLAG (CISBIO), 2×5 nM D2-anti-HIS (CISBIO) in PBS+0.01% Triton-X100+200 mM Potassium Fluoride (Sigma 60238) and 2 μl of mix is added to each well of the assay plate. The plate is briefly centrifuged then incubated for 2 h at rt. The HTRF intensities at the wavelength of donor (620 nm) and acceptor (665 nm) are measured using BMG Pherastar. The ratio between intensities at two wavelengths is calculated and plotted against the compound concentration and the data is fitted to a one-site competition model to yield IC50 of the compound.
Regarding `Cc1nocc1C(=O)N[C@H](c1cn2ncc(C(NC(=O)CCC(F)(F)F)C(C)C)cc2n1)C1CCC(F)(F)CC1` (mixture of isomers) [Example 134, N—((S)-(4,4-Difluorocyclohexyl)(7-(2-methyl-1-(4,4,4-trifluorobutanamido)propyl)imidazo[1,2-b]pyridazin-2-yl)methyl)-3-methylisoxazole-4-carboxamide], the concentration for half-maximal inhibition (IC50) was 180 nM.
The same measure, in the same setting: for `O=C(CCC(F)(F)F)N[C@@H](c1cnn2cc([C@@H](NC(=O)C3CC3C(F)(F)F)C3CCC(F)(F)CC3)nc2c1)C1CC1` (mixture of isomers) [Example 43, (Trans-1,2)-N—((S)-(7-((R)-cyclopropyl(4,4,4-trifluorobutanamido)methyl)imidazo[1,2-b]pyridazin-2-yl)(4,4-difluorocyclohexyl)methyl)-2-(trifluoromethyl)cyclopropane-1-carboxamide] the value was 240 nM.
On the same count and under the same terms, the value for `Cc1nonc1C(=O)N[C@H](c1cn2ncc([C@H](NC(=O)[C@H]3CNC[C@@H]3C(F)(F)F)C3CC3)cc2n1)C1CCC(F)(F)CC1` (relative stereo) [Example 355, N—((S)-(7-((R)-Cyclopropyl((trans-3R*,4R*)-4-(trifluoromethyl)pyrrolidine-3-carboxamido)methyl)imidazo[1,2-b]pyridazin-2-yl)(4,4-difluorocyclohexyl)methyl)-4-methyl-1,2,5-oxadiazole-3-carboxamide] was 19000 nM; that for `O=C(CCC(F)(F)F)NC(c1cnn2cc([C@@H](NC(=O)c3ccccc3)C3CCC(F)(F)CC3)nc2c1)C1CC1` (single isomer, unassigned) [Example 13, N—((S)-(7-((S*)-Cyclopropyl(4,4,4-trifluorobutanamido)methyl)imidazo[1,2-b]pyridazin-2-yl)(4,4-difluorocyclohexyl)methyl)benzamide] was 7600 nM.
For `Cc1nonc1C(=O)N[C@H](c1cn2ncc([C@H](NC(=O)CCCC#N)C3CC3)cc2n1)C1CCC(F)(F)CC1` [Example 351, N—((S)-(7-((R)-(4-Cyanobutanamido)(cyclopropyl)methyl)imidazo[1,2-b]pyridazin-2-yl)(4,4-difluorocyclohexyl)methyl)-4-methyl-1,2,5-oxadiazole-3-carboxamide], the half-inhibitory concentration (IC50) came out at 2600 nM.

The test system of another assay is IL-17A-induced G-CSF production in human normal keratinocyte (NHK). As to the kind of experiment: NHK Assay: IL-17A-induced G-CSF production in human normal keratinocytes. The following applies: Homo sapiens, Keratinocyte, 24 h, adult normal human keratinocytes, IL-17A 5 ng/mL, simple average if tested more than once. The class given is cell-based. The method, then: IL-17A acts directly on keratinocytes through binding to dimeric receptor IL-17RA/RC and drives the production of a number of inflammatory mediators known to be elevated in psoriasis lesional tissue. IL-17A small molecule inhibitors that block the IL-17A to interact with IL-17R would inhibit the IL-17A signaling in its targeted cells such as keratinocytes. The compound functional activity is evaluated for its impact on IL-17A-induced G-CSF production in human normal keratinocyte (NHK).
Adult normal human keratinocytes are cultured in keratinocyte growth medium (Lonza) in a flask till reaching ˜ 90% confluence, then cells are transferred to a 384-well plate at density of 3000-4000 cell/well. Recombinant human IL-17A (Gibco PHC9174) is pre-incubated with titrated compound or DMSO for 1 h at rt then added to the cell culture plate. The final concentration of IL-17A is 5 ng/mL and DMSO is 0.2%, in the culture containing 5% FBS. Cells are cultured/treated for 24 h at 37° C. Supernatants are collected and G-CSF production is measured through HTRF technology using Human G-CSF Kit (CisBio). G-CSF concentration was extrapolated from the standard curve and IC50 is determined using GraphPad Prism. Cell viability is also evaluated using CellTiter-Glo kit (Promega) and effect of compound on cell viability is compared to DMSO control.
`Cc1nocc1C(=O)N[C@H](c1cn2ncc(C(NC(=O)CCC(F)(F)F)C(C)C)cc2n1)C1CCC(F)(F)CC1` (mixture of isomers) [Example 134, N—((S)-(4,4-Difluorocyclohexyl)(7-(2-methyl-1-(4,4,4-trifluorobutanamido)propyl)imidazo[1,2-b]pyridazin-2-yl)methyl)-3-methylisoxazole-4-carboxamide]: half-maximal inhibition (IC50) required 110 nM.
Still for that read-out and setting: for `O=C(CCC(F)(F)F)N[C@@H](c1cnn2cc([C@@H](NC(=O)C3CC3C(F)(F)F)C3CCC(F)(F)CC3)nc2c1)C1CC1` (mixture of isomers) [Example 43, (Trans-1,2)-N—((S)-(7-((R)-cyclopropyl(4,4,4-trifluorobutanamido)methyl)imidazo[1,2-b]pyridazin-2-yl)(4,4-difluorocyclohexyl)methyl)-2-(trifluoromethyl)cyclopropane-1-carboxamide] the value was 720 nM; for `O=C(CCC(F)(F)F)N[C@@H](c1cnn2cc([C@@H](NC(=O)c3nonc3CN3CC(F)(F)C3)C3CCC(F)(F)CC3)nc2c1)C1CC1` [Example 387, N—((S)-(7-((R)-Cyclopropyl(4,4,4-trifluorobutanamido)methyl)imidazo[1,2-b]pyridazin-2-yl)(4,4-difluorocyclohexyl)methyl)-4-((3,3-difluoroazetidin-1-yl)methyl)-1,2,5-oxadiazole-3-carboxamide], 72 nM.
On the same count and under the same terms, the value for `CC(C)(C)Oc1nonc1C(=O)N[C@H](c1cn2ncc([C@H](NC(=O)CC3CC(F)(F)C3)C3CC3)cc2n1)C1CCC(F)(F)CC1` [Example 392, 4-(tert-Butoxy)-N—((S)-(7-((R)-cyclopropyl(2-(3,3-difluorocyclobutyl)acetamido)methyl)imidazo[1,2-b]pyridazin-2-yl)(4,4-difluorocyclohexyl)methyl)-1,2,5-oxadiazole-3-carboxamide] was 37 nM; that for `CC(C)c1ncsc1C(=O)N[C@H](c1cn2ncc([C@H](NC(=O)CCC(F)(F)F)C3CC3)cc2n1)C1CCC(F)(F)CC1` [Example 464, N—((S)-(7-((R)-Cyclopropyl(4,4,4-trifluorobutanamido)methyl)imidazo[1,2-b]pyridazin-2-yl)(4,4-difluorocyclohexyl)methyl)-4-isopropylthiazole-5-carboxamide] was 630 nM.
Same read-out and setting: the value for `CC(C)c1nnsc1C(=O)N[C@H](c1cn2ncc([C@H](NC(=O)CCC(F)(F)F)C3CC3)cc2n1)C1CCC(F)(F)CC1` [Example 481, N—[(S)-[7-[(R)-Cyclopropyl-(4,4,4-trifluorobutanamido)methyl]imidazo[1,2-b]pyridazin-2-yl]-(4,4-difluorocyclohexyl)methyl]-4-isopropyl-thiadiazole-5-carboxamide] was 470 nM.

The same assay, now with this note: adult normal human keratinocytes, IL-17A 5 ng/mL, 24 h, simple average if tested more than once.
The compound `CC(C)n1nccc1C(=O)N[C@H](c1cn2ncc(C(NC(=O)CC3CC(F)(F)C3)C(F)F)cc2n1)C1CCC(F)(F)CC1` (single isomer, unassigned) [Example 420, N—((S)-(7-((R*)-1-(2-(3,3-Difluorocyclobutyl)acetamido)-2,2-difluoroethyl)imidazo[1,2-b]pyridazin-2-yl)(4,4-difluorocyclohexyl)methyl)-1-isopropyl-1H-pyrazole-5-carboxamide] came in with a half-maximal inhibitory concentration (IC50) of 4100 nM.
Same read-out and setting: the value for `CC(C)n1nccc1C(=O)N[C@H](c1cn2ncc(C(CC3CCC3)NC(=O)CC3CC(F)(F)C3)cc2n1)C1CCC(F)(F)CC1` (single isomer, unassigned) [Example 441, N—((S)-(7-((S*)-2-Cyclobutyl-1-(2-(3,3-difluorocyclobutyl)acetamido)ethyl)imidazo[1,2-b]pyridazin-2-yl)(4,4-difluorocyclohexyl)methyl)-1-isopropyl-1H-pyrazole-5-carboxamide] was 1100 nM; that for `CC(C)n1nccc1C(=O)N[C@H](c1cn2ncc(C(NC(=O)CC3CC(F)(F)C3)C(C)(C)O)cc2n1)C1CCC(F)(F)CC1` (single isomer, unassigned) [Example 442, N—((S)-(7-((S*)-1-(2-(3,3-Difluorocyclobutyl)acetamido)-2-hydroxy-2-methylpropyl)imidazo[1,2-b]pyridazin-2-yl)(4,4-difluorocyclohexyl)methyl)-1-isopropyl-1H-pyrazole-5-carboxamide] was 600 nM; that for `Cc1nonc1C(=O)N[C@H](c1cn2ncc(C(NC(=O)CC3CC(F)(F)C3)C(C)(C)O)cc2n1)C1CCC(F)(F)CC1` (single isomer, unassigned) [Example 443, N—((S)-(7-((S*)-1-(2-(3,3-Difluorocyclobutyl)acetamido)-2-hydroxy-2-methylpropyl)imidazo[1,2-b]pyridazin-2-yl)(4,4-difluorocyclohexyl)methyl)-4-methyl-1,2,5-oxadiazole-3-carboxamide] was 520 nM.
The same measure, in the same setting: the value for `Cc1nonc1C(=O)N[C@H](c1cn2ncc(C(NC(=O)CCC(F)(F)F)C(F)F)cc2n1)C1CCC(F)(F)CC1` (single isomer, unassigned) [Example 515, N—((S)-(7-((S*)-2,2-Difluoro-1-(4,4,4-trifluorobutanamido)ethyl)imidazo[1,2-b]pyridazin-2-yl)(4,4-difluorocyclohexyl)methyl)-4-methyl-1,2,5-oxadiazole-3-carboxamide] was 140 nM; that for `O=C(CC1CC(F)(F)C1)NC(c1cnn2cc([C@@H](NC(=O)c3nonc3C3CC3)C3CCC(F)(F)CC3)nc2c1)C(F)F` (single isomer, unassigned) [Example 518, 4-Cyclopropyl-N—((S)-(7-((R*)-1-(2-(3,3-difluorocyclobutyl)acetamido)-2,2-difluoroethyl)imidazo[1,2-b]pyridazin-2-yl)(4,4-difluorocyclohexyl)methyl)-1,2,5-oxadiazole-3-carboxamide] was 2900 nM.
As to `CC(C)c1oncc1C(=O)N[C@H](c1cn2ncc([C@H](NC(=O)CCC(F)(F)F)C3CC3)cc2n1)C1CCC(F)(F)CC1` [Example 482, N—[(S)-[7-[(R)-Cyclopropyl-(4,4,4-trifluorobutanamido)methyl]imidazo[1,2-b]pyridazin-2-yl]-(4,4-difluorocyclohexyl)methyl]-5-isopropyl-isoxazole-4-carboxamide], the IC50 was found to be 76 nM.
